Laboratory results reported in US20220218837A1, “DRUG CONJUGATE” (priority 2018, published 2022).

Experiments:
[1] = test system: A431 cells (EGFR++/HER2+/-/CD71+)
HeLa cells (EGFR+/-) = test: Cell killing / cell viability, HeLa cells
[2] = test system: HSP27 mRNA in A431 cells (EGFR++); test: HSP27 gene silencing in A431 cells; assay type: cell-based, human
Protocol: (§1) Cells were seeded in DMEM (PAN-Biotech GmbH) supplemented with 10% fetal bovine serum (PAN-Biotech GmbH) and 1% penicillin/streptomycin (PAN-Biotech GmbH), in a 96 well plate at 5,000 c/w in 100 μL/well and incubated overnight at 37° C. and 5% CO2. The next day samples were prepared in DMEM and cells were treated.
(§2) RNA isolation and Qper analysis was performed according to standard procedures and protocols.

[3] = test system: HSP27 mRNA in A2058 cells (EGFR-); test: HSP27 gene silencing in A2058 cells; assay type: cell-based, human; settings: titrated + fixed 4000 nM SO1861-EMCH, nM of HSP27BNA or of conjugate
Protocol: as §1, §2

[4] = test system: SK-BR-3, JIMT-1, MDA-MB-468, A431, CaSki, HeLa, A2058; test: Control treatments, relative cell viability on all cell lines; assay type: cell-based, human; settings: wide range of toxin concentrations, up to 100.000 pM

**Q.** Which “concentration above which general toxicity is seen without EGFdianthin” value ([1]; single compound) does the source give for CC(=O)OC1C(C)OC(OC2C(C)OC(OC(=O)[C@]34CCC(C)(C)CC3C3=CCC5[C@@]6(C)CC[C@H](OC7OC(C(=O)O)C(O)C(OC8OCC(O)C(O)C8O)C7OC7OC(CO)C(O)C(O)C7O)[C@@](C)(/C=N/NC(=O)CCCCCN7C(=O)C=CC7=O)C6CC[C@@]5(C)[C@]3(C)C[C@H]4O)C(OC3OC(C)C(OC4OCC(O)C(OC5OC(CO)C(O)C(O)C5O)C4O)C(O)C3O)C2O)C(O)C1OC1OCC(O)C(O)C1O (some centres unmarked) [SO1861-EMCH] here?
**A.** > 25.000 nM

**Q.** What about the “concentration above which general toxicity is seen without EGFdianthin” value (A2058 cells (EGFR-); single compound) of the same molecule?
**A.** > 25.000 nM

**Q.** And the “IC50 cell viability reduction” value (A2058 cells (EGFR-); titrated + fixed […] EGFdianthin)?
**A.** not affected at all

**Q.** And the “concentration above which general toxicity is seen without EGFdianthin” value (HeLa cells (EGFR+/-); single compound)?
**A.** > 25.000 nM

**Q.** How did the IC50 cell killing ([1]; substance alone, no partner) turn out when CC(=O)OC1C(C)OC(OC2C(C)OC(OC(=O)[C@]34CCC(C)(C)CC3C3=CCC5[C@@]6(C)CC[C@H](OC7OC(C(=O)O)C(O)C(OC8OCC(O)C(O)C8O)C7OC7OC(CO)C(O)C(O)C7O)[C@@](C)(C=O)C6CC[C@@]5(C)[C@]3(C)C[C@H]4O)C(OC3OC(C)C(OC4OCC(O)C(OC5OC(CO)C(O)C(O)C5O)C4O)C(O)C3O)C2O)C(O)C1OC1OCC(O)C(O)C1O (some centres unmarked) [SO1861] was run?
**A.** strong cell viability reduction

**Q.** And the IC50 cell killing (A2058 cells (EGFR-); substance alone, no partner)?
**A.** strong cell viability reduction

**Q.** What about the “IC50 cell viability (general toxicity)” value (HeLa cells (EGFR+/-); substance alone, in absence of EGFdianthin) of the same molecule?
**A.** strong cell viability reduction

**Q.** With “HSP27BNA: antisense BNA oligo targeting HSP27 mRNA, sequence 5′-GGCacagccagtgGCG-3′ (antisense GGCACAGCCAGTGGCG; BNA modifications)” as the molecule, how does the IC50 ([2]; titrated + fixed 28.6 nM or 77 nM cetuximab-(Cys-L-SO1861)^3.9) read?
**A.** 10 nM

**Q.** What about the IC50 ([2]; titrated + fixed 4000 nM SO1861-EMCH, nM of HSP27BNA or of conjugate) of the same molecule?
**A.** 10 nM

**Q.** What about the IC50 [3] of the same molecule?
**A.** 10 nM

**Q.** With saporin as the molecule, how does the “influence on cell viability” value [4] read?
**A.** do not or hardly have any influence on cell viability
